Patent US12138256B2, “Treatment of cardiopulmonary disorders” (Bayer Aktiengesellschaft, priority 2021, dated 2024)
Where “and” joins values, the source holds several entries; their conditions need not be identical. Identical values can stand only once.

Legend:
[1] = tested on: thromboxane analog U46619 induced PAH in minipigs; test: Haemodynamics (PAP, BP) in the anesthetized thromboxane challenged PAH minipig after inhaled (nebulized) application (C-2.1); assay type: in vivo, Göttingen minipig; conditions: for PAP % change vs. baseline / PAP % changes vs prevalue, mean / BP % change vs. baseline: 100 μg/kg nominal dose; for PAP % change vs. baseline / BP % change vs. baseline: individual animals; for PAP % changes vs prevalue, mean: n = 3; for % changes in BP vs baseline / % changes in PAP vs baseline: inhaled 30 μg/kg
Procedure, shortened: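 Anesthetized, ventilated Göttingen minipigs (2-6 kg) given continuous infusion (0.3-0.75 μg/kg/min) to raise mean PAP above 25 mmHg, dosing starting after a 30 min plateau. Compound in 1% DMSO/0.2% citric acid, pH 8, nebulized via Aeroneb Pro into the inspiratory arm (~7 min; stock 300 μg/kg). PAP by Swan-Ganz catheter, BP via carotid catheter.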

[2] = Protein binding via Transil assay, dog plasma; assay type: in vitro ADME; conditions: Dog Beagle plasma, Transil assay
Excerpt: The distribution of a test substance between Transil® (phosphatidylcholine lipid bilayers immobilized on silica beads) and plasma is a characteristic feature of any pharmaceutical compound and is dependent on its extent of binding to plasma proteins. By comparing the distribution between Transil® and buffer with the distribution between Transil® and plasma of any species of interest, the unbound fraction in the plasma of the respective animal species can be calculated in vitro. The respective plasma and buffer concentrations were determined via a radioactivity analysis. A detailed description of the method and its validation was published by Schuhmacher et al. (2).

For `O=C(O)c1ccc(CCN(CCc2ccccc2OCc2ccc(-c3ccc(C(F)(F)F)cc3)cc2Cl)[C@H]2CCCc3nc(C(=O)O)ccc32)cc1` [comparative example 11, (5S)-5-{[2-(4-carboxyphenyl)ethyl][2-(2-{[3-chloro-4′-(trifluoromethyl)[biphenyl]-4-yl]methoxy}phenyl)ethyl]amino}-5,6,7,8-tetrahydroquinoline-2-carboxylic acid], the “PAP % change vs. baseline” value ([1]; inhaled, time 190 min) was 77.0% and 61.7% and 68.1%, the “PAP % changes vs prevalue, mean” value ([1]; inhaled, time 190 min) was −30.5% and the “BP % change vs. baseline” value ([1]; inhaled, time 200 min) was 99.9% and 90.4% and 98.2%. The “PAP % change vs. baseline” value ([1]; inhaled, time 200 min) was 77.0% and 62.5% and 68.2%, the “PAP % changes vs prevalue, mean” value ([1]; inhaled, time 200 min) was −30.9% and the “BP % change vs. baseline” value ([1]; inhaled, time 210 min) was 98.8% and 90.4% and 97.3%. For the same molecule, the “PAP % change vs. baseline” value ([1]; inhaled, time 210 min) was 76.5% and 62.0% and 67.9%, the “PAP % changes vs prevalue, mean” value ([1]; inhaled, time 210 min) was −30.6% and the “BP % change vs. baseline” value ([1]; inhaled, time 220 min) was 101.0% and 90.4% and 97.3%. The “PAP % change vs. baseline” value ([1]; inhaled, time 220 min) was 77.2% and 61.2% and 68.1%, the “PAP % changes vs prevalue, mean” value ([1]; inhaled, time 220 min) was −31.6% and the “BP % change vs. baseline” value ([1]; inhaled, time 230 min) was 99.9% and 90.4% and 96.3%. For the same molecule, the “PAP % change vs. baseline” value ([1]; inhaled, time 230 min) was 76.3% and 61.2% and 67.7%, the “PAP % changes vs prevalue, mean” value ([1]; inhaled, time 230 min) was −31.2% and the “BP % change vs. baseline” value ([1]; inhaled, time 240 min) was 98.8% and 89.5% and 95.4%. For the same molecule, the “PAP % change vs. baseline” value ([1]; inhaled, time 240 min) was 76.5% and 62.5% and 67.8%, the “PAP % changes vs prevalue, mean” value ([1]; inhaled, time 240 min) was −31.0% and the “BP % change vs. baseline” value ([1]; inhaled, time 250 min) was 98.8% and 89.5% and 95.4%. The “PAP % change vs. baseline” value ([1]; inhaled, time 250 min) was 77.6% and 63.0% and 69.1%, the “BP % change vs. baseline” value ([1]; inhaled, time 260 min) was 97.7% and 87.7% and 95.4% and the “PAP % change vs. baseline” value ([1]; inhaled, time 260 min) was 77.4% and 62.0% and 67.4%. For the same molecule, the “BP % change vs. baseline” value ([1]; inhaled, time 270 min) was 96.6% and 86.8% and 99.2%, the “PAP % change vs. baseline” value ([1]; inhaled, time 270 min) was 77.5% and 61.5% and 67.9% and the “BP % change vs. baseline” value ([1]; inhaled, time 280 min) was 96.6% and 86.8% and 96.3%. The “PAP % change vs. baseline” value ([1]; inhaled, time 280 min) was 77.5% and 63.0% and 68.1%, the “BP % change vs. baseline” value ([1]; inhaled, time 290 min) was 97.7% and 86.8% and 94.4% and the “PAP % change vs. baseline” value ([1]; inhaled, time 290 min) was 77.3% and 62.5% and 67.8%. The “BP % change vs. baseline” value ([1]; inhaled, time 300 min) was 96.6% and 85.1% and 93.4%, the “PAP % change vs. baseline” value ([1]; inhaled, time 300 min) was 78.1% and 63.0% and 67.3% and the “BP % change vs. baseline” value ([1]; inhaled, time 310 min) was 95.5% and 83.3% and 93.4%. For the same molecule, the “PAP % change vs. baseline” value ([1]; inhaled, time 310 min) was 76.7% and 60.5% and 68.1%, the “BP % change vs. baseline” value ([1]; inhaled, time 320 min) was 95.5% and 81.6% and 92.5% and the “PAP % change vs. baseline” value ([1]; inhaled, time 320 min) was 75.6% and 63.2% and 67.7%. For the same molecule, the “BP % change vs. baseline” value ([1]; inhaled, time 330 min) was 95.5% and 79.8% and 92.5%, the “PAP % change vs. baseline” value ([1]; inhaled, time 330 min) was 76.5% and 63.0% and 67.6% and the “duration of action compared to Ventavis” value ([1]; PAH minipig model, inhaled) was “more than 6 times”. For the same molecule, the “time of maximum effect on PAP” value ([1]; after inhaled application (nebulization), comparative example 11 30 μg/kg, Cinaciguat 3 and 10 μg/kg, Riociguat 100 μg/kg, comparative example 3 30 μg/kg) was “around 60 min”, the “% changes in BP vs baseline” value ([1]; 0 min vs. start inhalation) was 99% and the “% changes in PAP vs baseline” value ([1]; 0 min vs. start inhalation) was 100% and 99%. The “% changes in BP vs baseline” value ([1]; 10 min vs. start inhalation) was 99% and 100%, the “% changes in PAP vs baseline” value ([1]; 10 min vs. start inhalation) was 102% and 99% and the “% changes in BP vs baseline” value ([1]; 20 min vs. start inhalation) was 96% and 98%. The “% changes in PAP vs baseline” value ([1]; 20 min vs. start inhalation) was 101% and 97%, the “% changes in BP vs baseline” value ([1]; 30 min vs. start inhalation) was 94% and 95% and the “% changes in PAP vs baseline” value ([1]; 30 min vs. start inhalation) was 101% and 97%. The “% changes in BP vs baseline” value ([1]; 40 min vs. start inhalation) was 91%, the “% changes in PAP vs baseline” value ([1]; 40 min vs. start inhalation) was 100% and 97% and the “% changes in BP vs baseline” value ([1]; 50 min vs. start inhalation) was 89% and 90%. The “% changes in PAP vs baseline” value ([1]; 50 min vs. start inhalation) was 102% and 96%, the “% changes in BP vs baseline” value ([1]; 60 min vs. start inhalation) was 86% and 88% and the “% changes in PAP vs baseline” value ([1]; 60 min vs. start inhalation) was 101% and 96%. The “% changes in BP vs baseline” value ([1]; 70 min vs. start inhalation) was 86% and 85%, the “% changes in PAP vs baseline” value ([1]; 70 min vs. start inhalation) was 103% and 95% and the “% changes in BP vs baseline” value ([1]; 80 min vs. start inhalation) was 85% and 86%. The “% changes in PAP vs baseline” value ([1]; 80 min vs. start inhalation) was 101% and 94%, the “% changes in BP vs baseline” value ([1]; 90 min vs. start inhalation) was 85% and the “% changes in PAP vs baseline” value ([1]; 90 min vs. start inhalation) was 102% and 94%. For the same molecule, the “% changes in BP vs baseline” value ([1]; 100 min vs. start inhalation) was 85% and 84%, the “% changes in PAP vs baseline” value ([1]; 100 min vs. start inhalation) was 103% and 92% and the “% changes in BP vs baseline” value ([1]; 110 min vs. start inhalation) was 84%. The “% changes in PAP vs baseline” value ([1]; 110 min vs. start inhalation) was 102% and 94%, the “% changes in BP vs baseline” value ([1]; 120 min vs. start inhalation) was 85% and 84% and the “% changes in PAP vs baseline” value ([1]; 120 min vs. start inhalation) was 101% and 92%. The “% changes in BP vs baseline” value ([1]; 130 min vs. start inhalation) was 85%, the “% changes in PAP vs baseline” value ([1]; 130 min vs. start inhalation) was 102% and 95% and the “% changes in BP vs baseline” value ([1]; 140 min vs. start inhalation) was 85%. The “% changes in PAP vs baseline” value ([1]; 140 min vs. start inhalation) was 101% and 95%, the “% changes in BP vs baseline” value ([1]; 150 min vs. start inhalation) was 84% and the “% changes in PAP vs baseline” value ([1]; 150 min vs. start inhalation) was 100% and 92%. The “% changes in BP vs baseline” value ([1]; 160 min vs. start inhalation) was 85% and 84%, the “% changes in PAP vs baseline” value ([1]; 160 min vs. start inhalation) was 100% and 91% and the “% changes in BP vs baseline” value ([1]; 170 min vs. start inhalation) was 86% and 85%. The “% changes in PAP vs baseline” value ([1]; 170 min vs. start inhalation) was 101% and 91%, the “% changes in BP vs baseline” value ([1]; 180 min vs. start inhalation) was 86% and the “% changes in PAP vs baseline” value ([1]; 180 min vs. start inhalation) was 101% and 91%. For the same molecule, the “% changes in BP vs baseline” value ([1]; 190 min vs. start inhalation) was 86% and 84%, the “% changes in PAP vs baseline” value ([1]; 190 min vs. start inhalation) was 101% and 91% and the “% changes in BP vs baseline” value ([1]; 200 min vs. start inhalation) was 87% and 83%. For the same molecule, the “% changes in PAP vs baseline” value ([1]; 200 min vs. start inhalation) was 101% and 90%, the “% changes in BP vs baseline” value ([1]; 210 min vs. start inhalation) was 88% and 84% and the “% changes in PAP vs baseline” value ([1]; 210 min vs. start inhalation) was 101% and 91%. The “% changes in BP vs baseline” value ([1]; 220 min vs. start inhalation) was 87%, the “% changes in PAP vs baseline” value ([1]; 220 min vs. start inhalation) was 99% and 92% and the “% changes in BP vs baseline” value ([1]; 230 min vs. start inhalation) was 89% and 86%. The “% changes in PAP vs baseline” value ([1]; 230 min vs. start inhalation) was 102% and 91%, the “% changes in BP vs baseline” value ([1]; 240 min vs. start inhalation) was 88% and 85% and the “% changes in PAP vs baseline” value ([1]; 240 min vs. start inhalation) was 99% and 92%. For the same molecule, the “% changes in BP vs baseline” value ([1]; −5 min vs. start inhalation) was 101% and 96%, the “% changes in PAP vs baseline” value ([1]; −5 min vs. start inhalation) was 99% and the “effect on systemic BP” value ([1]; inhaled, 30 μg/kg) was “did not show any decrease on systemic BP”. For the same molecule, the lung selectivity ([1]; inhaled, nominal dose of 100 μg/kg) was “good lung selectivity”, the duration of action ([1]; inhaled, Ventavis 10 μg/kg nominal dose, comparative example 11 10, 30 and 100 μg/kg nominal dose, 240 min observation interval) was no less than 240 min and the fraction unbound [2] was 0.00108.
